For eight molecules, pest or weed control and inhibition results are on record in patent publication US20250042886A1, “BIS(HETERO)ARYL THIOETHER OXADIAZINES AS FUNGICIDAL COMPOUNDS” (Bayer Aktiengesellschaft, priority 2021, published 2025).

Test [1] relates to Alternaria brassicae. The test can be described thus: In vivo preventive test on Alternaria brassicae (leaf spot on radish or cabbage). To be noted: 500 ppm of active ingredient, sprayed on young radish or cabbage plants 24 h before inoculation, evaluated 3 to 4 days after inoculation, read-out: efficacy. Put shortly:
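Young radish or cabbage plants sprayed preventively with compound formulated in DMSO/acetone/Tween 80 and diluted in water; vehicle-treated plants as controls. Leaves inoculated by spraying an aqueous Alternaria brassicae spore suspension 24 h after treatment.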

Test [2] deals with Botrytis cinerea. The test can be described thus: In vivo preventive test on Botrytis cinerea (grey mould). The settings on record: 500 ppm of active ingredient, sprayed on young gherkin or cabbage plants 24 h before inoculation, evaluated 4 to 5 days after inoculation, read-out: efficacy. Put shortly:
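Compounds in DMSO/acetone/Tween 80 were diluted in water and sprayed onto young gherkin or cabbage plants; controls got solvent only. After 24 h, leaves were sprayed with an aqueous Botrytis cinerea spore suspension.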

In test [3] the test system is Colletotrichum lindemuthianum. In words: In vivo preventive test on Colletotrichum lindemuthianum (leaf spot on bean). The settings on record: 168 h, 500 ppm of active ingredient, sprayed on young bean plants 24 h before inoculation, evaluated 7 days after inoculation, read-out: efficacy. An outline of the steps:
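Young bean plants sprayed preventively with compound in DMSO/acetone/Tween 80 diluted in water; controls got solvent mix only. After 24 hours, leaves sprayed with an aqueous spore suspension of C. lindemuthianum.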

In test [4] the test system is Pyricularia oryzae. In words: microbe, parasite or virus in culture. It counts as cell-based. To be noted: 120 h; for inhibition at 20 ppm: read-out: efficacy (inhibition of fungal growth), 20 ppm of active ingredient, liquid culture, 5 days incubation.
Test [5] concerns Pyrenophora teres. The test can be described thus: Pyrenophora teres in vitro cell test. The settings on record: 144 h, liquid culture, 6 days incubation, read-out: efficacy (inhibition of fungal growth); for inhibition at 20 ppm: 20 ppm of active ingredient. The class given is cell-based. An outline of the steps:
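Compounds in DMSO were added to P. teres spore suspensions in glucose/peptone/yeast-extract liquid medium, testing inhibition of spore germination and mycelium growth. After 6 days, mycelium growth was read by absorbance. Inhibition was calculated relative to fungicide-free control wells.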

For test [6], the system named is Botrytis cinerea. The test can be described thus: Botrytis cinerea in vitro cell test. It counts as cell-based. To be noted: 144 h, liquid culture, 6 days incubation, read-out: efficacy (inhibition of fungal growth); for inhibition at 20 ppm: 20 ppm of active ingredient. An outline of the steps: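 Compounds from DMSO stocks added at a range of concentrations to a defined mineral-salt/sucrose liquid medium inoculated with B. cinerea spores. After 6 days' incubation, mycelium growth was read by absorbance; inhibition of germination and growth was calculated against fungicide-free control wells.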

The subject of test [7] is Septoria tritici. The test can be described thus: Septoria tritici in vitro cell test. It counts as cell-based. To be noted: Zymoseptoria tritici, 168 h, liquid culture, 7 days incubation, read-out: efficacy (inhibition of fungal growth); for inhibition at 20 ppm: 20 ppm of active ingredient. Here is the method:
B-11. Septoria tritici In Vitro Cell Test • Solvent: DMSO • Culture medium: 1 g KH2PO4 (VWR), 1 g K2HPO4 (VWR), 0.5 g Urea (VWR), 3 g KNO3 (Prolabo), 10 g saccharose (VWR), 0.5 g MgSO4, 7H2O (Sigma), 0.07 g CaCl2, 2H2O (Prolabo), 0.2 mg MnSO4, H2O (Sigma), 0.6 mg CuSO4, 5H2O (Sigma), 7.9 mg ZnSO4, 7H2O (Sigma), 0.1 mg H3BO3 (Merck), 0.14 mg NaMoO4, 2H2O (Sigma), 2 mg thiamine (Sigma), 0.1 mg biotine (VWR), 4 mg FeSO4, 7H2O (Sigma), QSP 1 liter • Inoculum: spore suspension Fungicides were solubilized in DMSO and the solution used to prepare the required range of concentrations. […] A spore suspension of S. tritici was prepared and diluted to the desired spore density. Fungicides were evaluated for their ability to inhibit spore germination and mycelium growth in liquid culture assay. The compounds were added in the desired concentration to the culture medium with spores. […] Inhibition of fungal growth was determined by comparing the absorbance values in wells containing the fungicides with the absorbance in control wells without fungicides.

For test [8], the system named is Alternaria alternata. The test can be described thus: Alternaria alternata in vitro cell test. The class given is cell-based. To be noted: 120 h, liquid culture, 5 days incubation, read-out: efficacy (inhibition of fungal growth); for inhibition at 20 ppm: 20 ppm of active ingredient. Put shortly: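 Spores in glucose/mycological peptone/yeast extract liquid medium were exposed to DMSO-dissolved fungicides for 5 days. Inhibition of germination and mycelial growth was read spectrophotometrically, comparing absorbance against fungicide-free control wells.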

`FC(F)(F)c1cccc(Sc2cnc(Cl)cc2C2=NOC[C@@H](Cc3ccc(Cl)cc3Cl)N2)c1` (racemic) [Compound I-022]: the pest or weed control at 500 ppm in test [1] is 80 to 89%; in test [2], 90 to 100%; in test [3] it was 90 to 100%. In addition, the inhibition at 20 ppm lay in the range of 80 to 89% in test [4], 90 to 100% in test [5], 90 to 100% in test [6] and 80 to 89% in test [7].

Take `Cc1cccc(Sc2cnc3ccccc3c2C2=NOC[C@H](Cc3ccc(C)cc3C)N2)c1` (racemic) [Compound I-023]: the pest or weed control at 500 ppm in test [1] lay within 90 to 100%; in test [2], 90 to 100%; in test [3], 70 to 79%. The inhibition at 20 ppm in test [8], in test [4], in test [5], in test [6] and in test [7] was 90 to 100% throughout.

`Cc1ccc(C[C@@H]2CON=C(c3c(Sc4cccc(C(F)(F)F)c4)nnc4ccccc34)N2)c(C)c1` (racemic) [Compound I-029]: the figures for the pest or weed control at 500 ppm in test [1], in test [2] and in test [3] were 80 to 89%, 90 to 100% and 70 to 79%, respectively. In addition, the inhibition at 20 ppm in test [8], in test [4], in test [5], in test [6] and in test [7] was 90 to 100% in each case.

Regarding `Cc1ccc(C[C@H]2CON=C(c3c(Sc4cccc(C(F)(F)F)c4)cnc4ccccc34)N2)c(C)c1` (racemic) [Compound I-030], the results for the pest or weed control at 500 ppm in test [1], in test [2] and in test [3] were 70 to 79%, 90 to 100% and 90 to 100%, respectively. In addition, the inhibition at 20 ppm was in the range of 90 to 100% in test [8]; 90 to 100% in test [4]; 90 to 100% in test [5]; 90 to 100% in test [6]; 70 to 79% in test [7].

Regarding `Cc1ccc(C[C@@H]2CON=C(c3nc(C)ncc3Sc3cccc(Cl)c3)N2)c(C)c1` (racemic) [Compound I-031], the pest or weed control at 500 ppm in test [1], in test [2] and in test [3] was 90 to 100% each time. For the same molecule, the inhibition at 20 ppm in test [8] fell in the range of 70 to 79%; in test [5], 90 to 100%; in test [6] it was 90 to 100%; in test [7] it was 80 to 89%.

`Cc1cccc(Sc2cnc(C)nc2C2=NOC[C@@H](Cc3ccc(C)cc3C)N2)c1` (racemic) [Compound I-032]: the pest or weed control at 500 ppm in test [1], in test [2] and in test [3] was 90 to 100% throughout. Also, the inhibition at 20 ppm was in the range of 70 to 79% in test [8]; 70 to 79% in test [4]; 90 to 100% in test [5]; 90 to 100% in test [6]; 90 to 100% in test [7].

Turning to `Cc1ccc(C[C@@H]2CON=C(c3nc(C)ncc3Sc3cccc(Cl)c3)N2)c(Cl)c1` (racemic) [Compound I-033], the pest or weed control at 500 ppm in test [1] is 80 to 89%; in test [2] it was 90 to 100%; in test [3], 90 to 100%. Further, the inhibition at 20 ppm in test [5], in test [6] and in test [7] was 90 to 100% each time.

`Cc1cc([C@@H]2CON=C(c3c(Sc4cccc(Cl)c4)nnc(C)c3C)N2)c(C)s1` (racemic) [Compound I-100]: the pest or weed control at 500 ppm in test [1], in test [2] and in test [3] was 90 to 100% in each case. For the same molecule, the inhibition at 50 µM in test [8] (50 μMol/l of active ingredient) was 90 to 100%; in test [4] (read-out: efficacy (inhibition of fungal growth), 50 μMol/l of active ingredient, liquid culture, 5 days incubation) it was 90 to 100%; in test [5] (50 μMol/l of active ingredient) it was 90 to 100%; in test [6] (50 μMol/l of active ingredient) it was 90 to 100%; in test [7] (50 μMol/l of active ingredient) it was 90 to 100%.
